# Measured values taken from patent publication US4501914A, “2-Hydroxy-3-(o-methoxy-phenoxy)propyl 2-(p-isobutyl-phenyl)-propionate and pharmaceutical compositions containing the same” (priority 1982, dated 1985).
# Tests used:
# [1] = Acute toxicity (Litchfield and Wilcoxon's Method), mouse; details: in vivo, po, per os
# Procedure: (§1) The acute toxicity was tested on various species of animal using Litchfield and Wilcoxon's Method (J. Pharm. Exp. Therap., 96, 99-113 (1949).
# [2] = Acute toxicity (Litchfield and Wilcoxon's Method), rat; details: in vivo, po, per os
# Procedure: as §1
# [3] = Acute toxicity (Litchfield and Wilcoxon's Method), rabbit; details: in vivo, po, per os
# Procedure: as §1
# [4] = test system: Subplantar oedema induced by carrageenin; assay: Anti-inflammatory activity - carrageenin oedema; assay type: in vivo, rats; details: for AREA % Absolute value / AREA % inhibition over controls: times 0-5
# Procedure: The tests were carried out on rats, using a test in which a subplantar oedema was induced by carrageenin.
# AFP 860 and, for comparison, 2-(p-isobutylphenyl)propionic acid (Ibuprofen) were administered orally 30 minutes before the carrageenin at the dosages specified below.
# When the oedema had been induced, the animals in each group were monitored, every 60 minutes for 5 consecutive hours in order to ascertain the development of the inflammatory process.
# [5] = test system: Pleurisy induced by carrageenin; assay: Pleurisy induced by carrageenin (Vinegar et al.); assay type: in vivo, Sprague-Dawley rats; parameters: leukocytes × 1000: unit not given here; details: for % inhib. over control (leukocytes) / % inhib. over control (volume of exudate) / leukocytes × 1000 / Volume (pleural exudate): 100 mg/kg per os; for Volume (pleural exudate): unit assumed
# Procedure: Sprague-Dawley rats of both sexes weighing between 150 and 200 g were used. The animals were divided into "at random" groups and were starved on the previous day with water ad lib.
# The compounds in question were administered orally 30 minutes before the intrapleural injection at an equal dose by weight of 100 mg/kg.
# [6] = test system: muscle relaxation; assay: Muscle relaxant activity, metal grille test (Kondziella); assay type: in vivo; details: mouse, per os, AFP 860 150 mg/kg, mephenesine 100 mg/kg
# Description: Use was made of the method of Kondziella (1964) which consists in suspending the mice from a metal grille and in recording the number of animals which remain suspended for more than 30 seconds. The animals which fall off during this time period are considered to be subject to muscle relaxation.
# A metal grille having a 7 mm mesh and a surface area of 2×2 m disposed horizontally at 1.5 m from the ground was used for this test. The mice were selected on the day preceding the test, rejecting those which fell within 30 seconds. These were then divided into 7 at random groups and starved. AFP 860 and, for comparison purposes, mephenesine both suspended in 1% carboxymethylcellulose were administered per os at dosages of 150 mg/kg in the case of AFP 860 and 100 mg/kg in the case of mephenesine. A third group of mice acting as the control received 1% CMC in equal volumes to those used for the mice treated with the drugs.
# For each mouse the grille suspension tests were carried out 15 and 30 minutes after administration of the drugs in order to enable the evaluation of the time of maximum activity and then every 30 minutes until the muscle relaxant effect had completely disappeared in order to establish the duration of this effect.
# The parameter used for evaluating the results was the percentage of animals subject to muscle relaxation with respect to those treated.
# [7] = test system: contortions induced by phenylquinone; assay: Analgesic activity - phenylquinone contortions (Siegmund et al.); assay type: in vivo, mouse; details: for % inhib. over controls (contortions) / Mean No. of Contortions / No. animals undergoing contortions: 100 mg/kg os
# [8] = test system: Hyperthermia induced by yeast; assay: Antipyretic activity - hyperthermia induced by yeast (Boisser et al.); assay type: in vivo, male rats; details: for Rectal Temperature, 1 h / Rectal Temperature, 2 h / Rectal Temperature, 3 h / Rectal Temperature, 4 h / Rectal Temperature, 5 h / Rectal Temperature, basic / % inhib. over controls (hyperthermia): p.o., Ibuprofen 100 mg/kg, AFP 860 150 mg/kg
# [9] = test system: bronchosecretogogue activity; assay: Bronchosecretogogue activity (Mawatari's technique); assay type: in vivo, Wistar rats; details: for % increase of FlNa (sodium fluorescein) with respect to controls: 500 mg/kg os
# Procedure: Bronchosecretogogue activity was determined in Wistar rats by means of per os administration using the method of Mawatari (Mawatari H., Kagoshima Daiagaku Igaku-Zasshi, 27, 561 (1976), and comparing AFP 860 and guaiaphenesine at the dosages given below. The results are shown in Table 8.
# [10] = test system: bronchial secretion; assay: Mucosecretolytic activity (technique of Giraldez et al.); assay type: in vivo, male rabbits; details: for % increase of bronchial secretion over controls: 500 mg/kg os
# Procedure: Mucosecretolytic action was tested on male rabbits using the technique of Giraldez, Grass and Bruseghini (Abstr.Comp.Int.Pharm. N. 1086--Paris 1978) by means of oral administration and comparing AFP 860 with guaiaphenesine at the dosages given below.
# [11] = Pharmacokinetics, Ibuprofen plasma levels; assay type: in vivo, Charles River albino rats
# [12] = Pulmonary tropism, Ibuprofen lung/plasma concentration ratio; assay type: in vivo, Charles River albino rats; details: rat
# [13] = test system: gastric mucosa; assay: Gastrolesive action; details: for Mean dimensions (mm) Ulcers: 5 hours and 30 minutes after treatment, os, Ibuprofen 100 mg/kg, AFP 860 150 mg/kg
# [14] = background statement; cited from earlier work
# [15] = per os, Ibuprofen 100 mg/kg, AFP 860 150 mg/kg
smiles,measurement,setting,value
"COc1ccccc1OCC(O)COC(=O)C(C)c1ccc(CC(C)C)cc1 (stereo not shown) [AFP 860, 2-hydroxy-3-(o-methoxyphenoxy)propyl 2-(p-isobutyl-phenyl)-propionate]",LD50,[1],1850 mg/kg
same,LD50,[2],2510 mg/kg
same,LD50,[3],3300 mg/kg
same,anti-inflammatory activity (in words),"[4]; carrageenin oedema, compared with Ibuprofen",excellent anti-inflammatory activity which is comparable to that of Ibuprofen
same,"Mean paw volume during treatment, time 0","[4]; time 0, per os, Ibuprofen 100 mg/kg, AFP 860 150 mg/kg",22.1
same,"Mean paw volume during treatment, time 1","[4]; time 1 (every 60 minutes), per os, Ibuprofen 100 mg/kg, AFP 860 150 mg/kg",27.1
same,"Mean paw volume during treatment, time 2","[4]; time 2 (every 60 minutes), per os, Ibuprofen 100 mg/kg, AFP 860 150 mg/kg",30.2
same,"Mean paw volume during treatment, time 3","[4]; time 3 (every 60 minutes), per os, Ibuprofen 100 mg/kg, AFP 860 150 mg/kg",31.6
same,"Mean paw volume during treatment, time 4","[4]; time 4 (every 60 minutes), per os, Ibuprofen 100 mg/kg, AFP 860 150 mg/kg",32.2
same,"Mean paw volume during treatment, time 5","[4]; time 5 (every 60 minutes), per os, Ibuprofen 100 mg/kg, AFP 860 150 mg/kg",34.7
same,AREA % Absolute value,[4]; [15],176.5
same,AREA % inhibition over controls,[4]; [15],43.2%
same,% inhib. over control (leukocytes),[5]; 5 hours,70.75%
same,% inhib. over control (volume of exudate),[5]; 5 hours,43.18%
same,leukocytes × 1000,[5]; 5 hours,"5,130 × 1000"
same,Volume (pleural exudate),[5]; 5 hours,0.54 mL
same,% inhib. over control (leukocytes),[5]; 24 hours,60.75%
same,% inhib. over control (volume of exudate),[5]; 24 hours,48.19%
same,leukocytes × 1000,[5]; 24 hours,"7,190 × 1000"
same,Volume (pleural exudate),[5]; 24 hours,0.43 mL
same,protective action (in words),"[5]; after 24 hours, compared with Ibuprofen",much greater than that of Ibuprofen
same,anti-inflammatory activity (in words),"[5]; pleurisy, equal doses by weight, compared with the comparison drug (Ibuprofen)",greater in absolute terms and of longer duration
same,% animals subject to muscle relaxation,[6],60%
same,analgesic activity (in words),"[7]; 100 mg/kg orally, compared with Ibuprofen at equal dosage by weight",slightly inferior to that of Ibuprofen
same,% inhib. over controls (contortions),[7],70.45%
same,Mean No. of Contortions,[7],3.9 ± 1.4
same,No. animals undergoing contortions,[7],2/10
same,"Rectal Temperature, 1 h",[8],37.7 °C
same,"Rectal Temperature, 2 h",[8],37.7 °C
same,"Rectal Temperature, 3 h",[8],37.5 °C
same,"Rectal Temperature, 4 h",[8],37.3 °C
same,"Rectal Temperature, 5 h",[8],37.2 °C
same,"Rectal Temperature, basic",[8],38.4 °C
same,antipyretic activity (in words),[8]; compared with Ibuprofen,"very good antipyretic activity, which is in practice the same as that of Ibuprofen"
same,% inhib. over controls (hyperthermia),[8],127.0%
same,% increase of FlNa (sodium fluorescein) with respect to controls,[9],24.5%
same,bronchosecretogogue effect (in words),"[9]; compared with guaiaphenesine, equal doses by weight",considerable effect as a bronchosecretogogue which may in practice be considered superimposable to that of guaiaphenesine
same,% increase of bronchial secretion over controls,[10],32.7%
same,secretolytic activity (in words),[10]; compared with guaiaphenesine at the same dosages by weight,remarkable secretolytic activity which is comparable with that of guaiaphenesine
same,Ibuprofen plasma levels (in words),"[11]; end of first hour to sixth hour, AFP 860 versus Ibuprofen per se",higher after the administration of AFP 860 than after the administration of Ibuprofen per se
same,latency and bio-availability (in words),[11]; with respect to Ibuprofen and guaiaphenesine,greater degree of latency and an improved bio-availability both with respect to Ibuprofen and guaiaphenesine
same,pulmonary tropism (in words),[12]; in vivo,marked pulmonary tropism
same,Mean dimensions (mm) Ulcers,[13],0.8 ± 0.3 mm
same,gastrolesivity (in words),[13]; compared with Ibuprofen,much lower than the Ibuprofen
"COc1ccccc1OCC(O)CO (stereo not shown) [Guaiaphenesine, 3-(o-methoxyphenoxy)-1,2-propandiol, reference compound]",% increase of FlNa (sodium fluorescein) with respect to controls,[9],20.3%
same,% increase of bronchial secretion over controls,[10],34.4%
"CC(C)Cc1ccc(C(C)C(=O)O)cc1 (stereo not shown) [Ibuprofen, 2-(p-isobutylphenyl)propionic acid, reference compound]",AREA % Absolute value,[4]; [15],184.0
same,AREA % inhibition over controls,[4]; [15],40.8%
same,% inhib. over control (leukocytes),[5]; 5 hours,69.32%
same,leukocytes × 1000,[5]; 5 hours,"5,380 × 1000"
same,% inhib. over control (leukocytes),[5]; 24 hours,7.47%
same,leukocytes × 1000,[5]; 24 hours,"16,950 × 1000"
same,% inhib. over controls (contortions),[7],82.26%
same,Mean No. of Contortions,[7],1.8 ± 0.6
same,No. animals undergoing contortions,[7],1/10
same,"Rectal Temperature, 1 h",[8],38.0 °C
same,"Rectal Temperature, 2 h",[8],37.7 °C
same,"Rectal Temperature, 3 h",[8],37.3 °C
same,"Rectal Temperature, 4 h",[8],37.5 °C
same,"Rectal Temperature, 5 h",[8],37.4 °C
same,"Rectal Temperature, basic",[8],38.8 °C
same,% inhib. over controls (hyperthermia),[8],119.0%
same,Tmax,"[11]; rat, plasma, po, after Ibuprofen 27 mg/kg per os, read-out: time of Ibuprofen peak in plasma (converted)",30 min
same,Cmax,"[11]; rat, plasma, po, per os, equimolar: Ibuprofen 27 mg/kg, AFP 860 50 mg/kg, read-out: Ibuprofen peak plasma level",24000 ng/mL
same,AUC,"[11]; rat, plasma, po, per os, equimolar: Ibuprofen 27 mg/kg, AFP 860 50 mg/kg, read-out: area under the plasma level curve (AUC) for Ibuprofen",49000 ng·h/mL
same,Kp at 0.5 h,"[12]; lung, po, 30 mins, per os, Ibuprofen 27 mg/kg, AFP 860 50 mg/kg, read-out: Ibuprofen concentration ratio between lung and plasma",0.2
same,Kp at 1 h,"[12]; lung, po, 1 hour, per os, Ibuprofen 27 mg/kg, AFP 860 50 mg/kg, read-out: Ibuprofen concentration ratio between lung and plasma",0.3
same,gastric lesions (in words),[14],considerable gastric lesions
same,Mean dimensions (mm) Ulcers,[13],8.7 ± 1.4 mm
"Cc1ccccc1OCC(O)CO (stereo not shown) [Mephenesine, reference compound]",% animals subject to muscle relaxation,[6],60%
